Earlier results in article PMC4744679 (Drug Testing and Analysis, 2015).

Columns and labels:
[1] = rats, orally administered, 24 and 48 h after injection
[2] = 0.5–3 h of observation
[3] = for Primary accumulation: inner ear, brain, kidney and liver examined
[4] = murine, single intraperitoneal injection
[5] = mature teratoma

**Q.** With `CC(=O)[O-].CC(=O)[O-].N.NC12CC3CC(CC(C3)C1)C2.[Cl-].[Cl-].[Pt+4]` [(OC‐6‐43)‐bis (acetato) (1‐adamantylamine) amminedichloroplatinum (IV)] as the compound, how does the Main accumulation organs [1] read?
**A.** liver, kidneys and spleen

**Q.** With `CC(C)c1cc(C(=O)[O-])c([O-])c(C(C)C)c1.NC1CCCCC1N.[Pt+2]` [Saliplatin, cis‐3,5‐diisopropylsalylic cyclohexano‐diaminoplatinum (II)] as the compound, how does the Primary accumulation sites [2] read?
**A.** spleen, liver, and kidneys

**Q.** Which “Distribution into brain and inner ear” value [3] does the source give for `N.N.O=C([O-])C1(C(=O)[O-])CCC1.[Pt+2]` [carboplatin, cis‐diammine(1,1‐cyclobutanedicarboxylato)platinum (II)] here?
**A.** much less distributed into brain and inner ear

**Q.** What about the Primary accumulation [3] of the same compound?
**A.** kidney and liver

**Q.** And the Main deposition?
**A.** kidney

**Q.** For `N.N.[Cl][Pt][Cl]` [cisplatin, cis‐dichlorodiammineplatinum (II)], which Primary accumulation [3] is on record?
**A.** kidney and liver

**Q.** And the Main platinum accumulation [4]?
**A.** kidneys and, secondly, in liver

**Q.** And the Main deposition?
**A.** kidney

**Q.** And the “Time after administration at which platinum is detected in the tissue” value [5]?
**A.** more than 7 years
